Measured values as given in patent US20100130457A1, “Phenothiazine Derivatives for Treatment of Asthma” (Immune Control, Inc., priority 2008, published 2010).
“Also recorded” adds a separate entry of the source.

What was measured:
[1] = test system: BALB/c mice, Af-induced allergic airway inflammation and hyperresponsiveness; experiment: Murine Aspergillus fumigatus (Af)-induced asthma model, methacholine-induced lung resistance / airway hyperresponsiveness; assay type: in vivo, mouse
Description: (§1) The following experiments were designed to test the efficacy of the compounds of the invention on a murine asthma model. A murine model of Aspergillus fumigatus (Af)-induced allergic airway inflammation and hyperresponsiveness was adapted from Haczku et al. (2001 Am. J. Respir. Cell Mol. Biol. 25: 45-50) to determine the activity of the candicate compounds (FIG. 2).
Briefly, BALB/c mice were sensitized intraperitoneally and challenged intranasally with Af extract as a form of a type of allergen challenge in the presence or absence of dexamethasone. With respect to sensitization, “naïve” mice received intranasal vehicle challenges only, with phosphate-buffered saline (PBS) where as “sensitized’ mice were injected intraperitoneally with 25 μg Af together with alum in 100 μl of PBS on days 1 and 14, followed by intranasal challenge on days 25, 26, and 27 with 25 μg of Af extract in 40 PBS μl in the presence or absence of dexamethasone (2.5 mg/kg in 100 μl saline). On day 28, sensitized mice were treated with the test compound (0.1, 1.0, 10 mg/kg) either one hour before or simultaneously with methacholine challenge (2.5, 5, 10, 20 mg/mL). Methacholine challenge is to induce airway constriction.
as §1, with “eradicate” for “candicate”, “11).” for “2).”
Briefly, BALB/c mice were sensitized intraperitoneally and challenged intranasally with Af extract as a form of a type of allergen challenge in the presence or absence of dexamethasone. With respect to sensitization, “naïve” mice received intranasal vehicle challenges only, with phosphate-buffered saline (PBS) where as “sensitized’ mice were injected intraperitoneally with 25 μg Af together with alum in 100 μl of PBS on days 1 and 14, followed by intranasal challenge on days 25, 26, and 27 with 25 μg of Af extract in 40 PBS μl in the presence or absence of dexamethasone (2.5 mg/kg in 100 μl saline) in combination with either o.g. treatment with ICI-735 (1 mg/kg or 10 mg/kg) or i.p. treatment with ICI-735 1 mg/kg. On day 28, sensitized mice were treated with methacholine challenge (2.5, 5, 10, 20 mg/mL). Methacholine challenge is to induce airway constriction.
With respect to the murine model of allergen induced AHR, BALB/c mice were sensitized and challenged via intranasal instillation of Aspergillus fumigatus (Af). […] Four hours after the last allergen challenge, airway function was assessed by flexivent. […]

[2] = test system: isolated rabbit Purkinje fibers; experiment: Action potential of isolated rabbit Purkinje fibers
Description: Further assessment in rabbit Punkinje fibers was undertaken to directly measure concentration-dependent changes in action potential induced by ICI-735.

`NCC(=O)NCCN1CCN(CCCN2c3ccccc3Sc3ccc(C(F)(F)F)cc32)CC1` [ICI-735] was tested, and the “AHR in Af sensitized mice” value ([1]; i.p. 1 mg/ml two hours prior to each intranasal challenge, flexivent four hours after last challenge) was “significantly inhibited”, the “decrease of lung resistance / airway hyper-responsiveness to methacholine” value ([1]; intraperitoneal, from 0.1 mg/kg, one hour before or with methacholine challenge, compared with dexamethasone 2.5 mg/kg) was “at least as effective as 2.5 mg/kg dexamethasone; also recorded: decreased airway hyperresponsiveness” and the “effect on naive animal airway contraction” value ([1]; naive mice) was “no effect”. The “decrease of lung resistance / airway hyper-responsiveness to methacholine” value ([1]; oral (o.g.), 1 mg/kg or 10 mg/kg) was “effective at decreasing lung resistance” and the “effect on action potential duration at 60% (APD60) and APD90” value [2] was “lack of effect”.
